Experimental findings from patent publication US20260167637A1, “NLRP3 INFLAMMASOME INHIBITOR AND USE THEREOF” (TransThera Sciences (Nanjing), Inc., priority 2022, published 2026) are described below.

The target in this test is T1, THP-1 cell NLRP3 (Homo sapiens, UniProt Q96P20).
T1 construct: endogenous in cells; host or cells: THP-1 cells, PMA-differentiated, stimulated with LPS and nigericin
In words: Inhibitory activity against cell NLRP3 inflammasomes in THP-1 cells (LPS + nigericin, ELISA of supernatant). Type of test: cell-based. The following applies: PMA-differentiated THP-1 cells, LPS 500 ng/mL 3 h, compound 1 h, nigericin 30 min; human IL-10 (so in the source) in supernatant by ELISA. On the procedure:
Experimental Example 1: Assay for Inhibitory Activity of Compounds Disclosed Herein Against Cell NLRP3 Inflammasomes
Test substances: The compounds of the present disclosure, prepared according to the methods described in the examples.
THP-1 is an immortalized human […] cell line.
Instrument: microplate reader (made by PE)
Assay Method: 1. THP-1 cells were cultured in 1640 complete medium (500 mL of 1640+56 mL of FBS+560 μL of 1000×P/S+2 μL of mercaptoethanol), and cells at passages 3-20 were used.
2. Culture plate coating: 100 μL of polylysine solution was added to a 96-well cell culture plate. After 30 min of incubation at 37° C., the solution was discarded, and the plate was washed with PBS twice for later use.
3. Induction of THP-1 differentiation: THP-1 cells were resuspended in an appropriate amount of complete medium containing 10 ng/mL PMA to form a cell suspension with a density of 5×10^5 cells/mL. The suspension was added to the 96-well plate at 100 μL/well, and the plate was incubated overnight in a 37° C. carbon dioxide cell incubator for 16 h.
4. Stimulation of THP-1: • a. Serum-free THP-1 culture medium containing LPS was added, with the final concentration being 500 ng/mL. The plate was incubated in a 37° C. carbon dioxide cell incubator for 3 h. • b. Mother liquors of the compounds to be tested with gradient concentrations were prepared with DMSO, added to the cells, and well mixed. Dilution was finally performed in a 1:1000 ratio. The plate was incubated in a 37° C. carbon dioxide cell incubator for 1 h. • c. Nigericin was added to each well, with the final concentration being […]. The plate was incubated in a carbon dioxide cell incubator at 37° C. for 30 min. • d. The medium in the wells was transferred to a new culture plate, and after 5 min of centrifugation at 3000 rpm, the supernatant was transferred to a new 96-well plate. • e. The content of human […] in the collected cell culture supernatant samples was determined with a commercial ELISA kit by following the instructions.

T1 sequence (Q96P20 whole entry): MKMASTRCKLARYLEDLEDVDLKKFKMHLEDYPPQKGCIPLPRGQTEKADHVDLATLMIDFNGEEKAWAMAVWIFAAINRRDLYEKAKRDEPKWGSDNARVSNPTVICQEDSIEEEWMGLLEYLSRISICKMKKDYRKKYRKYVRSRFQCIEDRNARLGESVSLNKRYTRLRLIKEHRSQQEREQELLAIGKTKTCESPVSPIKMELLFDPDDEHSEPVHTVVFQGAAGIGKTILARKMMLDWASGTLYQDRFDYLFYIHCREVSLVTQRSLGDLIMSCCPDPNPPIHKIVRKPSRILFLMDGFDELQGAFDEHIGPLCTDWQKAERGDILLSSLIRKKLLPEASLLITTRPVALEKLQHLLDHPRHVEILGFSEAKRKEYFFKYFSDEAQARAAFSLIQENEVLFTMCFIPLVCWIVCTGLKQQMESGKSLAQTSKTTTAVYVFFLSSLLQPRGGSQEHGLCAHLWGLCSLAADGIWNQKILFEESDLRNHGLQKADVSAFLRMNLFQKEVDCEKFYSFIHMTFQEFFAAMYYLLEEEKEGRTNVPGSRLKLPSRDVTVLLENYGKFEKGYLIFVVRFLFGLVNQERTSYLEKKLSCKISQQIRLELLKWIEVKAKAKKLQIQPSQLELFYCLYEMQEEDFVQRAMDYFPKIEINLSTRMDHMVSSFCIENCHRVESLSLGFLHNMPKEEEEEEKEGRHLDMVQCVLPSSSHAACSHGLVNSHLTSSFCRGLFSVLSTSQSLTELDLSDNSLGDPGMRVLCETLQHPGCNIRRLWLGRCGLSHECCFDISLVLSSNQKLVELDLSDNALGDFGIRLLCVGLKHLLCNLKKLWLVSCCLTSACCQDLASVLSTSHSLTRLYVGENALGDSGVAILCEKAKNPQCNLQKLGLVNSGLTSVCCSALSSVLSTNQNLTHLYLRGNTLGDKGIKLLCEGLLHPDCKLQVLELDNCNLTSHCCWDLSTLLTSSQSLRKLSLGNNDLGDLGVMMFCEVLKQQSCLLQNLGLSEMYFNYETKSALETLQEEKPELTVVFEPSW

Consider `C#Cc1ccc(-c2nnc(N[C@@H]3CCCN(C4CC4)C3)nc2C2CC2)c(O)c1` [Compound 97, (R)-2-(5-cyclopropyl-3-((1-cyclopropylpiperidin-3-yl)amino)-1,2,4-triazin-6-yl)-5-ethynylphenol], for which the IC50 amounted to 1 nM. With `C#Cc1ccc(-c2nnc(N[C@@H]3CCCN(CCOC)C3)cc2C2CC2)c(O)c1` [Compound 240, (R)-2-(4-cyclopropyl-6-((1-(2-methoxyethyl)piperidin-3-yl)amino)pyridazin-3-yl)-5-ethynylphenol] the figure was 1.3 nM; with `CC#Cc1ccc(-c2nnc(N[C@@H]3CCCN(C)C3)n3nccc23)c(O)c1` [Compound 40, (R)-2-(7-((1-methylpiperidin-3-yl)amino)pyrazolo[1,5-d][1,2,4]triazin-4-yl)-5-(prop-1-yn-1-yl)phenol], 12.8 nM. With `CC#Cc1ccc(-c2nnc(N[C@@H]3CCCN(CC(C)(C)O)C3)cc2C)c(O)c1` [Compound 36, (R)-2-(6-((1-(2-hydroxy-2-methylpropyl)piperidin-3-yl)amino)-4-methylpyridazin-3-yl)-5-(prop-1-yn-1-yl)phenol] the figure was 12.7 nM; with `[2H]C([2H])([2H])N1CCC[C@@H](Nc2nnc(-c3ccc(C#C)cc3O)c(C3CC3)n2)C1` [Compound 87, (R)-2-(5-cyclopropyl-3-((1-(methyl-d3)piperidin-3-yl)amino)-1,2,4-triazin-6-yl)-5-ethynylphenol], 0.7 nM; with `C#Cc1ccc(-c2nnc(N[C@@H]3CCCNC3)cc2C)c(O)c1` [Compound 139, (R)-5-ethynyl-2-(4-methyl-6-(piperidin-3-ylamino)pyridazin-3-yl)phenol], 1.1 nM. As for `C#Cc1ccc(-c2nnc(N[C@@H]3CCCN(CC)C3)nc2C2CC2)c(O)c1` [Compound 92, (R)-2-(5-cyclopropyl-3-((1-ethylpiperidin-3-yl)amino)-1,2,4-triazin-6-yl)-5-ethynylphenol], the figure is 0.5 nM. `C#Cc1ccc(-c2nnc(N[C@@H]3CCCNC3)cc2C(F)(F)F)c(O)c1` [Compound 161, (R)-5-ethynyl-2-(6-(piperidin-3-ylamino)-4-trifluoromethylpyridazin-3-yl)phenol]: the IC50 stood at 9.9 nM. With `Cc1cc(N[C@@H]2CCCN(C)C2)nnc1-c1ccc(C#CC(F)(F)F)cc1O` [Compound 111, (R)-2-(4-methyl-6-((1-methylpiperidin-3-yl)amino)pyridazin-3-yl)-5-(3,3,3-trifluoroprop-1-yn-1-yl)phenol] the figure was 1.1 nM. As for `CC#Cc1ccc(-c2nnc(N[C@@H]3CCCN(C(C)CO)C3)cc2C)c(O)c1` (stereo partly drawn) [Compound 37, 2-(6-(((3R)-1-(1-hydroxypropan-2-yl)piperidin-3-yl)amino)-4-methylpyridazin-3-yl)-5-(prop-1-yn-1-yl)phenol], the figure is 0.8 nM; as for `C#Cc1ccc(-c2nnc(N[C@@H]3CCCN(C4CC4)C3)nc2C)c(O)c1` [Compound 96, (R)-2-(3-((1-cyclopropylpiperidin-3-yl)amino)-5-methyl-1,2,4-triazin-6-yl)-5-ethynylphenol], 0.5 nM; as for `C#Cc1ccc(-c2nnc(N[C@@H]3CCCN(C4CC4)C3)cc2C2CC2)c(O)c1` [Compound 95, (R)-2-(4-cyclopropyl-6-((1-cyclopropylpiperidin-3-yl)amino)pyridazin-3-yl)-5-ethynylphenol], 0.4 nM. With `C#Cc1ccc(-c2nnc(N[C@@H]3CCCN(C4CC4)C3)c(=O)n2C)c(O)c1` [Compound 98, (R)-6-((1-cyclopropylpiperidin-3-yl)amino)-3-(4-ethynyl-2-hydroxyphenyl)-4-methyl-1,2,4-triazin-5(4H)-one] the figure was 5 nM; with `C#Cc1ccc(-c2nnc(N[C@@H]3CCCN(CC)C3)nc2C)c(O)c1` [Compound 91, (R)-2-(3-((1-ethylpiperidin-3-yl)amino)-5-methyl-1,2,4-triazin-6-yl)-5-ethynylphenol], 0.2 nM. As to `CC#Cc1ccc(-c2nnc(N[C@@H]3CCCN(CCCO)C3)cc2C)c(O)c1` [Compound 35, (R)-2-(6-((1-(3-hydroxypropyl)piperidin-3-yl)amino)-4-methylpyridazin-3-yl)-5-(prop-1-yn-1-yl)phenol], the IC50 is 3.3 nM. With `Cc1cc(N[C@@H]2CCCN(C)C2)nnc1-c1ccc(C=C(F)F)cc1O` [Compound 39, (R)-5-(2,2-difluorovinyl)-2-(4-methyl-6-((1-methylpiperidin-3-yl)amino)pyridazin-3-yl) phenol] the figure was 0.3 nM; with `C#Cc1cc(C)c(-c2ccc(N[C@@H]3CCCN(C)C3)nn2)c(O)c1` [Compound 41, (R)-5-ethynyl-3-methyl-2-(6-((1-methylpiperidin-3-yl)amino)pyridazin-3-yl)phenol], 0.3 nM; with `C#Cc1ccc(-c2nnc(N[C@@H]3CCCN(C4CC4)C3)cc2C)c(O)c1` [Compound 94, (R)-2-(6-((1-cyclopropylpiperidin-3-yl)amino)-4-methylpyridazin-3-yl)-5-ethynylphenol], 0.3 nM. As for `C#Cc1ccc(-c2nnc(N[C@@H]3CCCN(CC)C3)c(=O)n2C2CC2)c(O)c1` [Compound 109, (R)-4-cyclopropyl-6-((1-ethylpiperidin-3-yl)amino)-3-(4-ethynyl-2-hydroxyphenyl)-1,2,4-triazin-5(4H)-one], the figure is 16 nM; as for `C#Cc1ccc(-c2nnc(N[C@@H]3CCCN(C)C3)c(=O)n2C(C)C)c(O)c1` [Compound 112, (R)-3-(4-Ethynyl-2-hydroxyphenyl)-4-isopropyl-6-((1-methylpiperidin-3-yl)amino)-1,2,4-triazin-5(4H)-one], 12 nM; as for `CC#Cc1ccc(-c2nnc(N[C@@H]3CCCN(CCO)C3)c(=O)n2C)c(O)c1` [Compound 33, (R)-3-(2-hydroxy-4-(prop-1-yn-1-yl)phenyl)-6-((1-(2-hydroxyethyl)piperidin-3-yl)amino)-4-methyl-1,2,4-triazin-5(4H)-one], 11.5 nM. In the case of `C#Cc1ccc(-c2nnc(N[C@@H]3CCCN(CCO)C3)cc2C(F)(F)F)c(O)c1` [Compound 163, (R)-5-ethynyl-2-(6-((1-(2-hydroxyethyl)piperidin-3-yl)amino)-4-trifluoromethylpyridazin-3-yl)phenol], the IC50 was determined as 1.1 nM.
